According to ChEMBL document CHEMBL3045439, “Isoforms of the heteropteran Nezara viridula ecdysone receptor: protein characterisation, RH5992 insecticide binding and homology modelling” (Pest Manag Sci, 2011):

Experiments:
Type in all cases: protein-complex assay
[1] = biological target: T1, Ecdysone receptor (Plodia interpunctella, UniProt Q6IVK1+Q6RVD3); experiment: Binding affinity to Plodia interpunctella (Indian meal moth ) EcR
T1 sequence (Q6RVD3 whole entry): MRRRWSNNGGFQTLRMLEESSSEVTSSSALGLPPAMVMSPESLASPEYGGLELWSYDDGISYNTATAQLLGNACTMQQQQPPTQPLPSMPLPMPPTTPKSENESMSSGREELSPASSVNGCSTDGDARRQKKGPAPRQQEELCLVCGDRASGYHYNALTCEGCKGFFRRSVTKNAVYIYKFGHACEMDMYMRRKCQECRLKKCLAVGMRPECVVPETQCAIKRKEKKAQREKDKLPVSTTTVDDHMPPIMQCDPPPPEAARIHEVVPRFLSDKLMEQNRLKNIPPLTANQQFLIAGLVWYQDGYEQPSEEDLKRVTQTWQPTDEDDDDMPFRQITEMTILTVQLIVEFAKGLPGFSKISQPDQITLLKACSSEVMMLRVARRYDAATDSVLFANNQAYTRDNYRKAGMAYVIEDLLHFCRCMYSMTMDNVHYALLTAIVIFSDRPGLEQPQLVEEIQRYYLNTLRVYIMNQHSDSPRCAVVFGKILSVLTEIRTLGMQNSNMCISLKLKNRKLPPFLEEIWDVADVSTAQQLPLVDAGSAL
T1 sequence (Q6IVK1 whole entry): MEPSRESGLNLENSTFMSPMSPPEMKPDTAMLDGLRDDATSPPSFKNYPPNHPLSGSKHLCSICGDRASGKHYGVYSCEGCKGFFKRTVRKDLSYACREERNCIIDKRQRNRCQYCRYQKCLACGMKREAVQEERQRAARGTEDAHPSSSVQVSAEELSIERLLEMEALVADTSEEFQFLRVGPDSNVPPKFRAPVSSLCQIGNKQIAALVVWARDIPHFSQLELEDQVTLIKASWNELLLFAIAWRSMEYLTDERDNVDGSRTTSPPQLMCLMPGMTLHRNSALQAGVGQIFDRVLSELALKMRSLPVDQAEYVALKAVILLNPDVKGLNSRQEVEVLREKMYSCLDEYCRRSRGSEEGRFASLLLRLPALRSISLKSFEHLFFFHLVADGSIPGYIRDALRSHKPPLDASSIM

[2] = biological target: Ecdysone receptor (Bemisia tabaci, UniProt A3EZJ4+A3EZJ5); experiment: Binding affinity to Bemisia tabaci (sweet potato whitefly) ecdysone receptor (EcR)
[3] = biological target: T2, Ecdysone receptor (Lucilia cuprina, UniProt O18531+Q962I5); experiment: Binding affinity to Lucilia cuprina EcR
T2 sequence (O18531 whole entry): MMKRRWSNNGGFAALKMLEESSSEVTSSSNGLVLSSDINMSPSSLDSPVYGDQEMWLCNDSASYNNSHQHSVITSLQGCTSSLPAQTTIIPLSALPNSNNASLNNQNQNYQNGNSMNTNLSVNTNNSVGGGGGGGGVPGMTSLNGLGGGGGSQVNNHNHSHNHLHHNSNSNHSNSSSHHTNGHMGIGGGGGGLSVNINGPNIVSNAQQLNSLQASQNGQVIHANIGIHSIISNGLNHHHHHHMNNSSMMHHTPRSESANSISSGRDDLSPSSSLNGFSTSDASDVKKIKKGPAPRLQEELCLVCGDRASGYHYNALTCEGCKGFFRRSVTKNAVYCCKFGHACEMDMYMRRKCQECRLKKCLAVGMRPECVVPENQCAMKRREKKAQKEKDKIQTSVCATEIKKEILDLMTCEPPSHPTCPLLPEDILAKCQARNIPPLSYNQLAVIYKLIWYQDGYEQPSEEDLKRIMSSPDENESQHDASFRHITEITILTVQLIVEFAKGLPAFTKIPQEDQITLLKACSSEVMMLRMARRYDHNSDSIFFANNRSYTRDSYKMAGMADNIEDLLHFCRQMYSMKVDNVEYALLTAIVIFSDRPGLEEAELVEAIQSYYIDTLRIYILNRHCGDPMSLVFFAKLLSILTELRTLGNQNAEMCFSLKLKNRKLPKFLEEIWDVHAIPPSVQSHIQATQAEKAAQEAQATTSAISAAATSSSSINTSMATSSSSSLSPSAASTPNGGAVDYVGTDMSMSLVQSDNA
T2 sequence (Q962I5 whole entry): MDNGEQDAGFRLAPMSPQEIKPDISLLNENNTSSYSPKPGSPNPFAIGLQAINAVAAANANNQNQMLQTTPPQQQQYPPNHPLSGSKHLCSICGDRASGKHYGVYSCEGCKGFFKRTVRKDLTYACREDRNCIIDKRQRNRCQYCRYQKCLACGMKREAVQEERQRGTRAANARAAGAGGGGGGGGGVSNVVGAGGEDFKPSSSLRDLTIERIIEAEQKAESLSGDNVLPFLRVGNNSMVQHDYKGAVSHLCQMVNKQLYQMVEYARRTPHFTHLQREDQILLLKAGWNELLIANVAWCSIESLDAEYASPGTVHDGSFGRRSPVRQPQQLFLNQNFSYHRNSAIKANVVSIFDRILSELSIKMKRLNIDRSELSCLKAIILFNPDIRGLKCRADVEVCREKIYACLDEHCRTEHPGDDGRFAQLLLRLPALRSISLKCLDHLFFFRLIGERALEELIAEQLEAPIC

Ecdysone receptor (Bemisia tabaci, UniProt A3EZJ4+A3EZJ5), sequence (A3EZJ4 1-297): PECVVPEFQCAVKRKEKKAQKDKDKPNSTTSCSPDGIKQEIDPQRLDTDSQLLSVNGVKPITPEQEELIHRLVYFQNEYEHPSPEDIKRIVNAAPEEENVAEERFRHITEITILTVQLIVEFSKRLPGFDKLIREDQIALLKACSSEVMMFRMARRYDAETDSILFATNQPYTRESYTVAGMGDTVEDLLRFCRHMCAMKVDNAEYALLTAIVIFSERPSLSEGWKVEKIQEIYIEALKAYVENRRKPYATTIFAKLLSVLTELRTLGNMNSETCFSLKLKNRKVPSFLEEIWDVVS
Ecdysone receptor (Bemisia tabaci, UniProt A3EZJ4+A3EZJ5), sequence (A3EZJ5 1-251): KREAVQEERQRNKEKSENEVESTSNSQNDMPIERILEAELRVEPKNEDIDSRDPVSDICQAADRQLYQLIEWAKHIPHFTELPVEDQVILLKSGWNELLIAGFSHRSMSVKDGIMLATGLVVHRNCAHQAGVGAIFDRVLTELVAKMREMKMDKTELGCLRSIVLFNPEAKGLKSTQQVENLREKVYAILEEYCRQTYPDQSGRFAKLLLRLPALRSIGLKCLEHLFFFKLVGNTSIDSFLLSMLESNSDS

CCc1ccc(C(=O)NN(C(=O)c2cc(C)cc(C)c2)C(C)(C)C)cc1 [TEBUFENOZIDE]
Ki [1]: 3.16 nM
Ki [2]: > 501000 nM
Ki [3]: 158 nM
